# Results published in US12569464B2, “Protein-protein interaction inducing technology” (Arvinas Operations, Inc., priority 2016, dated 2026).
# Like-named read-outs stand apart in the source and are kept apart here.
# Columns and labels:
# c-Myc expression = experiment: c-Myc ELISA assay in 22RV1 cells; format: cell-based, human
# Protocol: It is composed of a BRD4-binding warhead which is connected to a VHL-binding warhead by a linear connector. […] Either the inhibition of BRD4 (by binding and blocking the active site of BRD4) or the degradation of BRD4 leads to the down-regulation of the expression level of a downstream protein c-Myc. […] MD simulation of a ternary system composed of BRD4 bromodomain 1, the ligand L and the complex of VHL with EB and EC in the presence of explicit water was performed.
# The connector linking the BRD-4 binding warhead and the cereblon-binding warhead was systematically probed from 2 to 8 atoms. For comparison, the parent inhibitor of BRD4 (compound JQ1) was also prepared. […] The expression level of a downstream protein c-Myc was measured. In this assay, either the inhibition of BRD4 (by binding and blocking the active site of BRD4) or the degradation of BRD4 leads to the down-regulation of the expression level of c-Myc.
# The connector linking the BRD4 warhead and the VHL-binding warhead was systematically probed from 5 to 19 atoms. […] The expression level of a downstream protein c-Myc was measured. In this assay, either the inhibition of BRD4 (e.g., by binding and blocking the active site of BRD4) or the degradation of BRD4 results in the down-regulation of the expression level of c-Myc.
# c-Myc ELISA Assay Protocol
# 22RV-1 cells were purchased from ATCC and cultured in RPMI+10% FBS media. Cells were harvested using trypsin (Gibco #25200-114), counted and seeded at 30,000 cells/well at a volume of 75 μL/well in RPMI+10% FBS media in 96-well plates. The cells were dosed with compounds diluted in 0.1% DMSO, incubated for 18h then washed and lysed in 50 uL RIPA buffer (50 mM Tris pH8, 150 mM NaCl, 1% Tx-100, 0.1% SDS, 0.5% sodium deoxycholate) supplemented with protease and phosphatase inhibitors. The lysates were clarified at 4000 rpm at 4° C. for 10 minutes then aliquots were added into a 96-well ELISA plate of Novex Human c-Myc ELISA kit from Life Technologies Catalog #KHO2041. 50 µL of c-Myc Detection antibody was added into every well, the plates incubated at room temperature for 3 hrs, then washed with ELISA wash buffer. 100 μL of the anti-rabbit IgG-HRP secondary antibody was added to each well and incubated at room temperature for 30 minutes. The plates were washed with ELISA wash buffer, 100 μL TMB added to each well, and then monitored every 5 minutes for a color change. 100 μL of stop solution is added and the plates read at 450 nm.
# AR = molecular target: T1, AR (Homo sapiens, UniProt P10275+P40337, T878A); experiment: AR degradation in LNCaP cells (androgen receptor ELISA); format: cell-based; details: LNCaP cells
# T1 construct: degradation Dmax of AR in LNCaP cells; endogenous in cells; host or cells: LNCaP
# Protocol: The connector linking the AR-binding warhead and the VHL-binding warhead was systematically probed from 4 to 23 atoms. The AR degradation potency DC50 and the maximum percentage of degradation Dmax of AR in LNCaP cells were measured for each of these compounds. […] The binary binding potency with respect to AR was also measured for some of the compounds by the cell-based ligand (R1881) displacement assay. The ratio α between the AR-binding potency and the degradation potency are calculated when it is possible.
# Androgen Receptor ELISA Assay
# The protocols used with VCaP cells are described below. The androgen receptor ELISA assay was performed using PathScan AR ELISA (Cell Signaling Catalog #12850) according to the following assay steps: […]
# [1] = 22RV1 cells, BRD4-cereblon series, Table 2
# [2] = 22RV1 cells, BRD4-cereblon series, Table 2, read-out: c-Myc expression inhibition IC50
# [3] = 22RV1 cells, BRD4-VHL series, Table 3
# [4] = 22RV1 cells, BRD4-VHL series, Table 3, read-out: c-Myc expression inhibition IC50
# [5] = 22RV1 cells, connector composition changes, Table 4
# [6] = 22RV1 cells, connector composition changes, Table 4, read-out: c-Myc expression inhibition IC50
# T1 sequence (Q15370 whole entry): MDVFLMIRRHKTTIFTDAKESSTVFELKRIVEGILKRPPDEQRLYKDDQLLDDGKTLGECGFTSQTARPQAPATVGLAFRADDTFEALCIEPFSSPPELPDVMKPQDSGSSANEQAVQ
# T1 sequence (P40337 whole entry): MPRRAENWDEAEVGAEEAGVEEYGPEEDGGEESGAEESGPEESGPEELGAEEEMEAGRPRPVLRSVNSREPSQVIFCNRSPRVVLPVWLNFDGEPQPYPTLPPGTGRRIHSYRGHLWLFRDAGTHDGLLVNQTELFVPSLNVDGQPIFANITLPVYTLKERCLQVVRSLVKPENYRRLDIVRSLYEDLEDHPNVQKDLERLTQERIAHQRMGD
# T1 sequence (P10275 whole entry T878A): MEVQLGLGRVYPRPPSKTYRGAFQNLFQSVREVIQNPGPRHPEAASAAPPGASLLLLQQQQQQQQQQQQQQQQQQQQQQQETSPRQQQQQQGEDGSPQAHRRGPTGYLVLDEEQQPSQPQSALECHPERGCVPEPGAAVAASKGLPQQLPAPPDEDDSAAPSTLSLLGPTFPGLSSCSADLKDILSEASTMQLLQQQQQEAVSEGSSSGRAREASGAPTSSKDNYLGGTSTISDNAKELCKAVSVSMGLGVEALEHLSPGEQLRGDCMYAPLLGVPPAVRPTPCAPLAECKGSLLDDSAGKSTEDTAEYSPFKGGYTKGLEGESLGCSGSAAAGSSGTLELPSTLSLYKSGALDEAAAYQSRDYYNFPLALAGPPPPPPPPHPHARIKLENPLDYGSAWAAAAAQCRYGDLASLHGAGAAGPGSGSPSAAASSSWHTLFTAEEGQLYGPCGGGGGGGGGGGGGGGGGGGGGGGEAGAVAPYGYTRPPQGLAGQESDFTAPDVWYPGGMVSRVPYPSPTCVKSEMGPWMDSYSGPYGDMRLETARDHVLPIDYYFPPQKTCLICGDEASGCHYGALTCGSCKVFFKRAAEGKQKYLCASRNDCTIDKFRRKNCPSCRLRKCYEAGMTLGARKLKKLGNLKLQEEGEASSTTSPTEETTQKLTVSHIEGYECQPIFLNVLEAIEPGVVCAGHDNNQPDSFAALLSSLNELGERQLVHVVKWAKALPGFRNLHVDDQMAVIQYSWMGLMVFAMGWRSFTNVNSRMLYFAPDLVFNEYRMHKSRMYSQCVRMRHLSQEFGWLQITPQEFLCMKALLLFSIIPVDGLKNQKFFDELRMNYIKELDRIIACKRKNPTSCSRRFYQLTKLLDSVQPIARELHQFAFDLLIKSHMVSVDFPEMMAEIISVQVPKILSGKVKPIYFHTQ
# T1 sequence (Q15369 whole entry, further chain): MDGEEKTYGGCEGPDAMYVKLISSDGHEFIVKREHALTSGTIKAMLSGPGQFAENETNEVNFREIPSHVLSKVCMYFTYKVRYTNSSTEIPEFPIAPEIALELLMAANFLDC
smiles,measurement,setting,value
Cc1sc2c(c1C)C(c1ccc(Cl)cc1)=NC(CC(=O)NCCNc1cccc3c1C(=O)N(C1CCC(=O)NC1=O)C3=O)c1nnc(C)n1-2 (mixture of isomers) [Compound 19],maximum inhibition Imax,c-Myc expression; [1],96%
same,IC50,c-Myc expression; [2],187 nM
Cc1sc2c(c1C)C(c1ccc(Cl)cc1)=NC(CC(=O)NCCCNc1cccc3c1C(=O)N(C1CCC(=O)NC1=O)C3=O)c1nnc(C)n1-2 (mixture of isomers) [Compound 20],maximum inhibition Imax,c-Myc expression; [1],93%
same,IC50,c-Myc expression; [2],123 nM
Cc1sc2c(c1C)C(c1ccc(Cl)cc1)=NC(CC(=O)NCCCCNc1cccc3c1C(=O)N(C1CCC(=O)NC1=O)C3=O)c1nnc(C)n1-2 (mixture of isomers) [Compound 21],maximum inhibition Imax,c-Myc expression; [1],88%
same,IC50,c-Myc expression; [2],250 nM
Cc1sc2c(c1C)C(c1ccc(Cl)cc1)=NC(CC(=O)NCCCCCNc1cccc3c1C(=O)N(C1CCC(=O)NC1=O)C3=O)c1nnc(C)n1-2 (mixture of isomers) [Compound 22],maximum inhibition Imax,c-Myc expression; [1],100%
same,IC50,c-Myc expression; [2],3.79 nM
Cc1sc2c(c1C)C(c1ccc(Cl)cc1)=NC(CC(=O)NCCOCCNc1cccc3c1C(=O)N(C1CCC(=O)NC1=O)C3=O)c1nnc(C)n1-2 (mixture of isomers) [Compound 23],maximum inhibition Imax,c-Myc expression; [1],100%
same,IC50,c-Myc expression; [2],0.682 nM
Cc1sc2c(c1C)C(c1ccc(Cl)cc1)=NC(CC(=O)NCCOCCOCCNc1cccc3c1C(=O)N(C1CCC(=O)NC1=O)C3=O)c1nnc(C)n1-2 (mixture of isomers) [Compound 25],maximum inhibition Imax,c-Myc expression; [1],100%
same,IC50,c-Myc expression; [2],13 nM
Cc1ncsc1-c1ccc(CNC(=O)[C@@H]2C[C@@H](O)CN2C(=O)[C@@H](NC(=O)CCOCCOc2ccc(N3C(=S)N(c4ccc(C#N)c(C(F)(F)F)c4)C(=O)C3(C)C)cc2)C(C)(C)C)cc1 [Compound 3],maximum AR degradation Dmax,AR,56%
Cc1ncsc1-c1ccc(CNC(=O)[C@@H]2C[C@@H](O)CN2C(=O)[C@@H](NC(=O)CCOCCCOc2ccc(N3C(=S)N(c4ccc(C#N)c(C(F)(F)F)c4)C(=O)C3(C)C)cc2)C(C)(C)C)cc1 [Compound 4],maximum AR degradation Dmax,AR,18%
same,DC50,AR; read-out: AR degradation potency DC50,> 3000 nM
Cc1ncsc1-c1ccc(CNC(=O)[C@@H]2C[C@@H](O)CN2C(=O)[C@@H](NC(=O)COCCCNC(=O)C[C@@H]2N=C(c3ccc(Cl)cc3)c3c(sc(C)c3C)-n3c(C)nnc32)C(C)(C)C)cc1 [Compound 26],maximum inhibition Imax,c-Myc expression; [3],98%
same,IC50,c-Myc expression; [4],95 nM
Cc1ncsc1-c1ccc(CNC(=O)[C@@H]2C[C@@H](O)CN2C(=O)[C@@H](NC(=O)COCCCCNC(=O)C[C@@H]2N=C(c3ccc(Cl)cc3)c3c(sc(C)c3C)-n3c(C)nnc32)C(C)(C)C)cc1 [Compound 27],maximum inhibition Imax,c-Myc expression; [3],100%
same,IC50,c-Myc expression; [4],78 nM
Cc1ncsc1-c1ccc(CNC(=O)[C@@H]2C[C@@H](O)CN2C(=O)[C@@H](NC(=O)COCCOCCNC(=O)C[C@@H]2N=C(c3ccc(Cl)cc3)c3c(sc(C)c3C)-n3c(C)nnc32)C(C)(C)C)cc1 [Compound 28],maximum inhibition Imax,c-Myc expression; [3],94%
same,IC50,c-Myc expression; [4],80.5 nM
Cc1ncsc1-c1ccc(CNC(=O)[C@@H]2C[C@@H](O)CN2C(=O)[C@@H](NC(=O)COCCCOCCNC(=O)C[C@@H]2N=C(c3ccc(Cl)cc3)c3c(sc(C)c3C)-n3c(C)nnc32)C(C)(C)C)cc1 [Compound 29],maximum inhibition Imax,c-Myc expression; [3],97%
same,IC50,c-Myc expression; [4],0.16 nM
same,maximum inhibition Imax,c-Myc expression; [5],97%
same,IC50,c-Myc expression; [6],0.16 nM
Cc1ncsc1-c1ccc(CNC(=O)[C@@H]2C[C@@H](O)CN2C(=O)[C@@H](NC(=O)COCCCOCCCNC(=O)C[C@@H]2N=C(c3ccc(Cl)cc3)c3c(sc(C)c3C)-n3c(C)nnc32)C(C)(C)C)cc1 [Compound 30],maximum inhibition Imax,c-Myc expression; [3],100%
same,IC50,c-Myc expression; [4],19.4 nM
Cc1ncsc1-c1ccc(CNC(=O)[C@@H]2C[C@@H](O)CN2C(=O)[C@@H](NC(=O)COCCOCCOCCNC(=O)C[C@@H]2N=C(c3ccc(Cl)cc3)c3c(sc(C)c3C)-n3c(C)nnc32)C(C)(C)C)cc1 [Compound 31],maximum inhibition Imax,c-Myc expression; [3],99.3%
same,IC50,c-Myc expression; [4],1.22 nM
Cc1ncsc1-c1ccc(CNC(=O)[C@@H]2C[C@@H](O)CN2C(=O)[C@@H](NC(=O)COCCCOCCCCCNC(=O)C[C@@H]2N=C(c3ccc(Cl)cc3)c3c(sc(C)c3C)-n3c(C)nnc32)C(C)(C)C)cc1 [Compound 32],maximum inhibition Imax,c-Myc expression; [3],98%
same,IC50,c-Myc expression; [4],0.86 nM
Cc1ncsc1-c1ccc(CNC(=O)[C@@H]2C[C@@H](O)CN2C(=O)[C@@H](NC(=O)COCCOCCOCCCCNC(=O)C[C@@H]2N=C(c3ccc(Cl)cc3)c3c(sc(C)c3C)-n3c(C)nnc32)C(C)(C)C)cc1 [Compound 33],maximum inhibition Imax,c-Myc expression; [3],97%
same,IC50,c-Myc expression; [4],5 nM
Cc1ncsc1-c1ccc(CNC(=O)[C@@H]2C[C@@H](O)CN2C(=O)[C@@H](NC(=O)COCCOCCOCCOCCNC(=O)C[C@@H]2N=C(c3ccc(Cl)cc3)c3c(sc(C)c3C)-n3c(C)nnc32)C(C)(C)C)cc1 [Compound 34],maximum inhibition Imax,c-Myc expression; [3],94%
same,IC50,c-Myc expression; [4],34 nM
Cc1ncsc1-c1ccc(CNC(=O)[C@@H]2C[C@@H](O)CN2C(=O)[C@@H](NC(=O)COCCOCCOCCCCOCCOCCNC(=O)C[C@@H]2N=C(c3ccc(Cl)cc3)c3c(sc(C)c3C)-n3c(C)nnc32)C(C)(C)C)cc1 [Compound 37],maximum inhibition Imax,c-Myc expression; [3],96.4%
same,IC50,c-Myc expression; [4],202 nM
Cc1ncsc1-c1ccc(CNC(=O)[C@@H]2C[C@@H](O)CN2C(=O)[C@@H](NC(=O)COCCOCCOCCOCCOCCOCCNC(=O)C[C@@H]2N=C(c3ccc(Cl)cc3)c3c(sc(C)c3C)-n3c(C)nnc32)C(C)(C)C)cc1 [Compound 38],maximum inhibition Imax,c-Myc expression; [3],62.2%
same,IC50,c-Myc expression; [4],707 nM
Cc1ncsc1-c1ccc(CNC(=O)[C@@H]2C[C@@H](O)CN2C(=O)[C@@H](NC(=O)CCCCCCCCNC(=O)C[C@@H]2N=C(c3ccc(Cl)cc3)c3c(sc(C)c3C)-n3c(C)nnc32)C(C)(C)C)cc1 [Compound 39],maximum inhibition Imax,c-Myc expression; [5],95.4%
same,IC50,c-Myc expression; [6],10.2 nM
Cc1ncsc1-c1ccc(CNC(=O)[C@@H]2C[C@@H](O)CN2C(=O)[C@@H](NC(=O)COCCCSCCNC(=O)C[C@@H]2N=C(c3ccc(Cl)cc3)c3c(sc(C)c3C)-n3c(C)nnc32)C(C)(C)C)cc1 [Compound 40],maximum inhibition Imax,c-Myc expression; [5],99%
same,IC50,c-Myc expression; [6],20.9 nM
Cc1ncsc1-c1ccc(CNC(=O)[C@@H]2C[C@@H](O)CN2C(=O)[C@@H](NC(=O)COCCCCCCNC(=O)C[C@@H]2N=C(c3ccc(Cl)cc3)c3c(sc(C)c3C)-n3c(C)nnc32)C(C)(C)C)cc1 [Compound 41],maximum inhibition Imax,c-Myc expression; [5],100%
same,IC50,c-Myc expression; [6],25.7 nM
Cc1ncsc1-c1ccc(CNC(=O)[C@@H]2C[C@@H](O)CN2C(=O)[C@@H](NC(=O)COCCCS(=O)(=O)CCNC(=O)C[C@@H]2N=C(c3ccc(Cl)cc3)c3c(sc(C)c3C)-n3c(C)nnc32)C(C)(C)C)cc1 [Compound 42],maximum inhibition Imax,c-Myc expression; [5],88.3%
same,IC50,c-Myc expression; [6],122 nM
"Cc1sc2c(c1C)C(c1ccc(Cl)cc1)=N[C@@H](CC(=O)OC(C)(C)C)c1nnc(C)n1-2 [JQ1, reference compound]",maximum inhibition Imax,c-Myc expression; [1],93%
same,IC50,"c-Myc expression; Homo sapiens, 22Rv1, read-out: c-Myc expression IC50",101 nM
same,IC50,"c-Myc expression; Homo sapiens, 22Rv1, read-out: c-Myc expression inhibition IC50",101 nM
